Laboratory results taken from US8952024B2, “Herbicidal pyrimidone derivatives” (E I du Pont de Nemours and Company, priority 2009, dated 2015).

Tests used:
Assay in all cases: Test B pre-/postemergence plant response
Format in all cases: in vivo
[1] = system: johnsongrass (Sorghum halepense); details: for Plant response rating, Johnsongrass: Postemergence; for Johnsongrass plant response rating (0 to 100 scale): postemergence, 0 is no effect, 100 is complete control
Procedure, shortened: (§1)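 Seeds were sown in loam soil/sand blend and treated preemergence with compound in non-phytotoxic solvent mixture containing surfactant; postemergence sprays, same formulation, went onto plants 2 to 18 cm (1- to 4-leaf stage) in peat-based planting medium. Greenhouse 13 to 15 days, then visual rating versus untreated controls, 0 (no effect) to 100 (complete control).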

[2] = system: yellow nutsedge (Cyperus esculentus); details: for Plant response rating, Nutsedge, Yellow: Postemergence; for Nutsedge, Yellow plant response rating (0 to 100 scale): postemergence, 0 is no effect, 100 is complete control
Procedure, shortened: as §1

[3] = system: morningglory (Ipomoea coccinea); details: for Plant response rating, Morningglory: Postemergence; for Morningglory plant response rating (0 to 100 scale): 62 g ai/ha, postemergence, 0 is no effect, 100 is complete control
Procedure, shortened: as §1

[4] = system: bermudagrass (Cynodon dactylon); details: for Plant response rating, Bermudagrass: Postemergence; for Bermudagrass plant response rating (0 to 100 scale): postemergence, 0 is no effect, 100 is complete control
Procedure, shortened: as §1

[5] = system: giant foxtail (Setaria faberii); details: for Plant response rating, Foxtail, Giant: Postemergence; for Foxtail, Giant plant response rating (0 to 100 scale): postemergence, 0 is no effect, 100 is complete control
Procedure, shortened: as §1

[6] = system: woolly cupgrass (Eriochloa villosa); details: for Plant response rating, Cupgrass, Woolly: Postemergence; for Cupgrass, Woolly plant response rating (0 to 100 scale): postemergence, 0 is no effect, 100 is complete control
Procedure, shortened: as §1

[7] = system: green foxtail (Setaria viridis); details: for Plant response rating, Foxtail, Green: Postemergence; for Foxtail, Green plant response rating (0 to 100 scale): postemergence, 0 is no effect, 100 is complete control
Procedure, shortened: as §1

[8] = system: goosegrass (Eleusine indica); details: for Plant response rating, Goosegrass: Postemergence; for Goosegrass plant response rating (0 to 100 scale): postemergence, 0 is no effect, 100 is complete control
Procedure, shortened: as §1

[9] = system: downy bromegrass (Bromus tectorum); details: for Plant response rating, Bromegrass, Downy: Postemergence; for Bromegrass, Downy plant response rating (0 to 100 scale): postemergence, 0 is no effect, 100 is complete control
Procedure, shortened: as §1

[10] = system: large crabgrass (Digitaria sanguinalis); details: for Plant response rating, Crabgrass, Large: Postemergence; for Crabgrass, Large plant response rating (0 to 100 scale): postemergence, 0 is no effect, 100 is complete control
Procedure, shortened: as §1

[11] = system: Italian ryegrass (Lolium multiflorum); details: for Plant response rating, Ryegrass, Italian: Postemergence; for Ryegrass, Italian plant response rating (0 to 100 scale): postemergence, 0 is no effect, 100 is complete control
Procedure, shortened: as §1

[12] = system: ragweed (common ragweed, Ambrosia elatior); details: for Plant response rating, Ragweed: Postemergence; for Ragweed plant response rating (0 to 100 scale): postemergence, 0 is no effect, 100 is complete control
Procedure, shortened: as §1

corn (Zea mays) = details: for Plant response rating, Corn: Postemergence; for Corn plant response rating (0 to 100 scale): postemergence, 0 is no effect, 100 is complete control
Procedure, shortened: as §1

[13] = 31 g ai/ha, 0 to 100 scale (0 no effect, 100 complete control)
[14] = 62 g ai/ha, scale 0 to 100 (0 no effect, 100 complete control)
[15] = 125 g ai/ha, scale 0 (no effect) to 100 (complete control), 13 to 15 days
[16] = 250 g ai/ha, scale 0 to 100 (0 no effect, 100 complete control), 13 to 15 days
[17] = 125 g ai/ha, scale 0 to 100 (0 no effect, 100 complete control)

CCn1c(-c2ccccc2)ncc(C(=O)C2=C(O)C3CCC(C3)C2=O)c1=O (stereo not shown) [Compound 239]
Plant response rating, Johnsongrass [1, 13]: 0
Plant response rating, Johnsongrass [1, 14]: 20
Plant response rating, Johnsongrass [1, 15]: 60
Plant response rating, Nutsedge, Yellow [2, 13]: 30
Plant response rating, Nutsedge, Yellow [2, 14]: 30
Plant response rating, Nutsedge, Yellow [2, 15]: 65
Plant response rating, Nutsedge, Yellow [2, 16]: 70
Plant response rating, Morningglory [3, 13]: 95
Plant response rating, Morningglory [3, 15]: 100
Plant response rating, Morningglory [3, 16]: 100
Plant response rating, Bermudagrass [4, 13]: 95
Plant response rating, Bermudagrass [4, 14]: 100
Plant response rating, Bermudagrass [4, 15]: 100
Plant response rating, Bermudagrass [4, 16]: 100
Plant response rating, Foxtail, Giant [5, 13]: 75
Plant response rating, Foxtail, Giant [5, 14]: 85
Plant response rating, Foxtail, Giant [5, 15]: 90
Plant response rating, Foxtail, Giant [5, 16]: 98
Plant response rating, Cupgrass, Woolly [6, 13]: 75
Plant response rating, Cupgrass, Woolly [6, 14]: 95
Plant response rating, Cupgrass, Woolly [6, 15]: 95
Plant response rating, Cupgrass, Woolly [6, 16]: 95
Plant response rating, Foxtail, Green [7, 13]: 80
Plant response rating, Foxtail, Green [7, 14]: 85
Plant response rating, Foxtail, Green [7, 15]: 90
Plant response rating, Foxtail, Green [7, 16]: 95
Plant response rating, Goosegrass [8, 13]: 80
Plant response rating, Goosegrass [8, 14]: 98
Plant response rating, Goosegrass [8, 15]: 98
Plant response rating, Goosegrass [8, 16]: 100
Plant response rating, Bromegrass, Downy [9, 13]: 0
Plant response rating, Bromegrass, Downy [9, 14]: 5
Plant response rating, Bromegrass, Downy [9, 15]: 5
Plant response rating, Bromegrass, Downy [9, 16]: 10
Plant response rating, Crabgrass, Large [10, 13]: 75
Plant response rating, Crabgrass, Large [10, 14]: 90
Plant response rating, Crabgrass, Large [10, 15]: 95
Plant response rating, Crabgrass, Large [10, 16]: 98
Plant response rating, Ryegrass, Italian [11, 13]: 0
Plant response rating, Ryegrass, Italian [11, 14]: 0
Plant response rating, Ryegrass, Italian [11, 15]: 0
Plant response rating, Ryegrass, Italian [11, 16]: 0
Plant response rating, Ragweed [12, 13]: 95
Plant response rating, Ragweed [12, 14]: 98
Plant response rating, Ragweed [12, 15]: 100
Plant response rating, Ragweed [12, 16]: 100
Plant response rating, Corn (corn (Zea mays); [13]): 5
Plant response rating, Corn (corn (Zea mays); [14]): 45
Plant response rating, Corn (corn (Zea mays); [15]): 45
Plant response rating, Corn (corn (Zea mays); [16]): 75

CCCn1c(-c2cc(F)cc(F)c2)ncc(C(=O)C2=C(O)CCCC2=O)c1=O [Compound 152]
Johnsongrass plant response rating (0 to 100 scale) ([1]; 62 g ai/ha, 13 to 15 days): 90
Plant response rating, Johnsongrass [1, 13]: 70
Plant response rating, Johnsongrass [1, 17]: 95
Plant response rating, Johnsongrass [1, 16]: 100
Nutsedge, Yellow plant response rating (0 to 100 scale) ([2]; 62 g ai/ha, 13 to 15 days): 75
Plant response rating, Nutsedge, Yellow [2, 13]: 65
Plant response rating, Nutsedge, Yellow [2, 17]: 80
Plant response rating, Nutsedge, Yellow [2, 16]: 80
Morningglory plant response rating (0 to 100 scale) ([3]; 13 to 15 days): 75
Plant response rating, Morningglory [3, 13]: 45
Plant response rating, Morningglory [3, 17]: 75
Plant response rating, Morningglory [3, 16]: 95
Bermudagrass plant response rating (0 to 100 scale) ([4]; 62 g ai/ha, 13 to 15 days): 95
Plant response rating, Bermudagrass [4, 13]: 95
Plant response rating, Bermudagrass [4, 17]: 98
Plant response rating, Bermudagrass [4, 16]: 98
Foxtail, Giant plant response rating (0 to 100 scale) ([5]; 62 g ai/ha, 13 to 15 days): 85
Plant response rating, Foxtail, Giant [5, 13]: 80
Plant response rating, Foxtail, Giant [5, 17]: 95
Plant response rating, Foxtail, Giant [5, 16]: 98
Cupgrass, Woolly plant response rating (0 to 100 scale) ([6]; 62 g ai/ha, 13 to 15 days): 98
Plant response rating, Cupgrass, Woolly [6, 13]: 95
Plant response rating, Cupgrass, Woolly [6, 17]: 98
Plant response rating, Cupgrass, Woolly [6, 16]: 100
Foxtail, Green plant response rating (0 to 100 scale) ([7]; 62 g ai/ha, 13 to 15 days): 75
Plant response rating, Foxtail, Green [7, 13]: 75
Plant response rating, Foxtail, Green [7, 17]: 98
Plant response rating, Foxtail, Green [7, 16]: 100
Goosegrass plant response rating (0 to 100 scale) ([8]; 62 g ai/ha, 13 to 15 days): 85
Plant response rating, Goosegrass [8, 13]: 80
Plant response rating, Goosegrass [8, 17]: 95
Plant response rating, Goosegrass [8, 16]: 98
Bromegrass, Downy plant response rating (0 to 100 scale) ([9]; 62 g ai/ha, 13 to 15 days): 55
Plant response rating, Bromegrass, Downy [9, 13]: 30
Plant response rating, Bromegrass, Downy [9, 17]: 60
Plant response rating, Bromegrass, Downy [9, 16]: 85
Crabgrass, Large plant response rating (0 to 100 scale) ([10]; 62 g ai/ha, 13 to 15 days): 85
Plant response rating, Crabgrass, Large [10, 13]: 75
Plant response rating, Crabgrass, Large [10, 17]: 95
Plant response rating, Crabgrass, Large [10, 16]: 95
Ryegrass, Italian plant response rating (0 to 100 scale) ([11]; 62 g ai/ha, 13 to 15 days): 30
Plant response rating, Ryegrass, Italian [11, 13]: 5
Plant response rating, Ryegrass, Italian [11, 17]: 45
Plant response rating, Ryegrass, Italian [11, 16]: 80
Ragweed plant response rating (0 to 100 scale) ([12]; 62 g ai/ha, 13 to 15 days): 80
Plant response rating, Ragweed [12, 13]: 60
Plant response rating, Ragweed [12, 17]: 95
Plant response rating, Ragweed [12, 16]: 98
Corn plant response rating (0 to 100 scale) (corn (Zea mays); 62 g ai/ha, 13 to 15 days): 45
Plant response rating, Corn (corn (Zea mays); [13]): 25
Plant response rating, Corn (corn (Zea mays); [17]): 65
Plant response rating, Corn (corn (Zea mays); [16]): 80

O=C1CCCC(O)=C1C(=O)c1cnc(-c2ccccc2)n(C2CCCC2)c1=O [Compound 131]
Plant response rating, Johnsongrass ([1]; 16 g ai/ha, 0 to 100 scale): 0
Johnsongrass plant response rating (0 to 100 scale) ([1]; 62 g ai/ha, 13 to 15 days): 25
Plant response rating, Johnsongrass [1, 13]: 5
Plant response rating, Johnsongrass [1, 17]: 50
Plant response rating, Nutsedge, Yellow ([2]; 16 g ai/ha, 0 to 100 scale): 0
Nutsedge, Yellow plant response rating (0 to 100 scale) ([2]; 62 g ai/ha, 13 to 15 days): 25
Plant response rating, Nutsedge, Yellow [2, 13]: 15
Plant response rating, Nutsedge, Yellow [2, 17]: 45
Plant response rating, Morningglory ([3]; 16 g ai/ha, 0 to 100 scale): 5
Morningglory plant response rating (0 to 100 scale) ([3]; 13 to 15 days): 70
Plant response rating, Morningglory [3, 13]: 70
Plant response rating, Morningglory [3, 17]: 75
Plant response rating, Bermudagrass ([4]; 16 g ai/ha, 0 to 100 scale): 60
Bermudagrass plant response rating (0 to 100 scale) ([4]; 62 g ai/ha, 13 to 15 days): 75
Plant response rating, Bermudagrass [4, 13]: 65
Plant response rating, Bermudagrass [4, 17]: 85
Plant response rating, Foxtail, Giant ([5]; 16 g ai/ha, 0 to 100 scale): 65
Foxtail, Giant plant response rating (0 to 100 scale) ([5]; 62 g ai/ha, 13 to 15 days): 75
Plant response rating, Foxtail, Giant [5, 13]: 75
Plant response rating, Foxtail, Giant [5, 17]: 80
Plant response rating, Cupgrass, Woolly ([6]; 16 g ai/ha, 0 to 100 scale): 10
Cupgrass, Woolly plant response rating (0 to 100 scale) ([6]; 62 g ai/ha, 13 to 15 days): 60
Plant response rating, Cupgrass, Woolly [6, 13]: 50
Plant response rating, Cupgrass, Woolly [6, 17]: 65
Plant response rating, Foxtail, Green ([7]; 16 g ai/ha, 0 to 100 scale): 40
Foxtail, Green plant response rating (0 to 100 scale) ([7]; 62 g ai/ha, 13 to 15 days): 90
Plant response rating, Foxtail, Green [7, 13]: 70
Plant response rating, Foxtail, Green [7, 17]: 95
Plant response rating, Goosegrass ([8]; 16 g ai/ha, 0 to 100 scale): 65
Goosegrass plant response rating (0 to 100 scale) ([8]; 62 g ai/ha, 13 to 15 days): 65
Plant response rating, Goosegrass [8, 13]: 65
Plant response rating, Goosegrass [8, 17]: 75
Plant response rating, Bromegrass, Downy ([9]; 16 g ai/ha, 0 to 100 scale): 0
Bromegrass, Downy plant response rating (0 to 100 scale) ([9]; 62 g ai/ha, 13 to 15 days): 0
Plant response rating, Bromegrass, Downy [9, 13]: 0
Plant response rating, Bromegrass, Downy [9, 17]: 0
Plant response rating, Crabgrass, Large ([10]; 16 g ai/ha, 0 to 100 scale): 65
Crabgrass, Large plant response rating (0 to 100 scale) ([10]; 62 g ai/ha, 13 to 15 days): 75
Plant response rating, Crabgrass, Large [10, 13]: 75
Plant response rating, Crabgrass, Large [10, 17]: 80
Plant response rating, Ryegrass, Italian ([11]; 16 g ai/ha, 0 to 100 scale): 0
Ryegrass, Italian plant response rating (0 to 100 scale) ([11]; 62 g ai/ha, 13 to 15 days): 0
Plant response rating, Ryegrass, Italian [11, 13]: 0
Plant response rating, Ryegrass, Italian [11, 17]: 0
Plant response rating, Ragweed ([12]; 16 g ai/ha, 0 to 100 scale): 65
Ragweed plant response rating (0 to 100 scale) ([12]; 62 g ai/ha, 13 to 15 days): 85
Plant response rating, Ragweed [12, 13]: 80
Plant response rating, Ragweed [12, 17]: 95
Plant response rating, Corn (corn (Zea mays); 16 g ai/ha, 0 to 100 scale): 0
Corn plant response rating (0 to 100 scale) (corn (Zea mays); 62 g ai/ha, 13 to 15 days): 10
Plant response rating, Corn (corn (Zea mays); [13]): 0
Plant response rating, Corn (corn (Zea mays); [17]): 20
